Results: patent EP0326490B2, “Synthetic peptides and mixtures thereof for detecting HIV antibodies” (ADALTIS INC., priority 1988, dated 2004)

System: HIV-2 positive sera
Experiment: ELISA, single peptides identifying HIV-2 positive sera
Assay type: binding, human
Conditions: single peptide
Protocol: A preferred convenient and classical technique for the determination of antibodies against AIDS virus using a peptide or a peptide mixture of the present invention is an enzyme-linked immunosorbent assay (ELISA). According to this test a peptide or a peptide mixture of the present invention is adsorbed onto the wells of a microtiter plate. The wells are then treated with sera to be tested. After washing, anti-human IgG labeled with peroxidase is added to the wells. The determination of the peroxidase is performed with a corresponding substrate, e.g. with o-phenylene diamine. Also in this procedure the peroxidase can be exchanged by another label, e.g. by a radioactive or fluorescence label. […]
TABLE 4 provides the results of single peptides which were individually evaluated in identifying known HIV-2 positive sera.
Each well of the microtiter plate is saturated with 100 µl of a solution containing a peptide or mixture of peptides (5 µg/ml) and left overnight. […] Serum samples to be analyzed are diluted with specimen buffer (washing buffer plus casein, 0.05% w/v). […] After 10 minutes the contents of each well is treated with 0.1 ml 2N H2SO4 and the optical density read at 450 nm. […]

Structure (SMILES): CC[C@H](C)[C@H](NC(=O)[C@H](CCC(=O)O)NC(=O)[C@@H](NC(=O)[C@@H](N)CC(C)C)C(C)C)C(=O)N[C@H](C(=O)N1CCC[C@H]1C(=O)N[C@H](C(=O)NCC(=O)N[C@@H](Cc1ccccc1)C(=O)N[C@@H](C)C(=O)N1CCC[C@H]1C(=O)N[C@H](C(=O)N[C@@H](CCCCN)C(=O)N[C@@H](CCC(=O)O)C(=O)N[C@@H](CCCCN)C(=O)N[C@@H](CCCNC(=N)N)C(=O)O)[C@@H](C)O)[C@@H](C)CC)[C@@H](C)O [Peptide 204]
- %Positive sera correctly Identified: 100%
